Source: the supplement of paper PMC10307832

Experiments:
Assay in all cases: relative viability (nuclei count vs DMSO), 5 days (fraction); higher = more cells survive
Ricolinostat + Lapatinib = compound: O=C(CCCCCCNC(=O)c1cnc(N(c2ccccc2)c2ccccc2)nc1)NO [Ricolinostat] + CS(=O)(=O)CCNCc1ccc(-c2ccc3ncnc(Nc4ccc(OCc5cccc(F)c5)c(Cl)c4)c3c2)o1 [Lapatinib] (partner 2 µM)
Method in brief: (§1)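 Relative viability divides the nuclei count in treated wells by that in vehicle wells. Lung cancer cell lines were seeded in 1536-well plates, dosed by pin tool the next day, and fixed and stained after 5 days in one step with final 0.05% Triton X-100, 1% formaldehyde and 1 ug/ml Hoechst. Dosing was a single drug or a fixed anchor-drug dose plus five library-drug doses (not always all listed) in √10 steps, and values are medians of duplicate plates imaged at 4×.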

[1] = compound: C1=CC=C(C(=C1)C2=CC=C(C=C2)C3=CSC4=C3C(=C(C(=O)N4)C#N)O)O + N=C(N)NC(=N)NCCc1ccccc1 [Phenformin] (partner 250 µM)
Method in brief: as §1

TGX 221 + Crizotinib = compound: CC1=CN2C(=O)C=C(N=C2C(=C1)C(C)NC3=CC=CC=C3)N4CCOCC4 [TGX 221] + C[C@@H](Oc1cc(-c2cnn(C3CCNCC3)c2)cnc1N)c1c(Cl)ccc(F)c1Cl [Crizotinib] (partner 1 µM)
Method in brief: as §1

TGX 221 + Luminespib = compound: CC1=CN2C(=O)C=C(N=C2C(=C1)C(C)NC3=CC=CC=C3)N4CCOCC4 [TGX 221] + CCNC(=O)c1noc(-c2cc(C(C)C)c(O)cc2O)c1-c1ccc(CN2CCOCC2)cc1 [Luminespib] (partner 0.01 µM)
Method in brief: as §1

Cell Line	relative viability (Ricolinostat + Lapatinib; first compound 0.08 µM)	relative viability (Ricolinostat + Lapatinib; first compound 0.253 µM)	relative viability (Ricolinostat + Lapatinib; first compound 0.8 µM)	relative viability (Ricolinostat + Lapatinib; first compound 2.53 µM)	relative viability ([1]; first compound 0.08 µM)	relative viability ([1]; first compound 0.253 µM)	relative viability ([1]; first compound 0.8 µM)	relative viability ([1]; first compound 2.53 µM)	relative viability ([1]; first compound 8 µM)	relative viability (TGX 221 + Crizotinib; first compound 0.08 µM)	relative viability (TGX 221 + Crizotinib; first compound 0.253 µM)	relative viability (TGX 221 + Crizotinib; first compound 0.8 µM)	relative viability (TGX 221 + Crizotinib; first compound 2.53 µM)	relative viability (TGX 221 + Crizotinib; first compound 8 µM)	relative viability (TGX 221 + Luminespib; first compound 0.08 µM)	relative viability (TGX 221 + Luminespib; first compound 0.253 µM)	relative viability (TGX 221 + Luminespib; first compound 0.8 µM)	relative viability (TGX 221 + Luminespib; first compound 2.53 µM)	relative viability (TGX 221 + Luminespib; first compound 8 µM)
COR-L23	1.05	0.835	0.8	0.588	0.383	0.467	0.464	0.467	0.372	0.597	0.523	0.727	0.597	0.619	0.666	0.684	0.638	0.797	0.683
COR-L 105	0.342	0.396	0.399	0.384	0.47	0.649	0.348	0.401	0.402	0.883	0.748	0.967	0.728	0.519	0.952	0.792	0.663	0.654	0.579
EKVX	–	0.205	0.205	0.19	0.226	0.259	0.233	0.221	0.216	0.85	0.832	0.843	0.927	0.773	0.832	0.724	0.791	0.715	0.738
EMC-BAC-2	0.784	0.895	0.894	0.676	0.38	0.563	0.492	0.533	0.43	0.745	0.706	0.746	0.743	0.569	1.12	1.08	1.16	1.11	1.08
EPLC-272H	–	0.978	1.03	0.884	0.219	0.254	0.398	0.327	0.248	0.827	0.57	0.833	–	0.72	0.346	0.419	0.388	0.28	0.177
H3255	0.189	0.3	0.2	0.207	0.326	0.39	0.377	0.347	0.362	0.745	0.812	0.881	0.848	0.575	0.784	0.937	0.918	0.981	0.887
HARA	0.503	0.676	0.659	0.411	0.323	0.542	0.433	0.431	0.425	1.06	1.02	0.905	1.16	0.795	0.827	0.863	0.812	0.702	0.668
HCC-15	0.729	0.808	0.854	0.899	0.407	0.516	0.496	0.494	0.387	0.821	0.783	0.852	0.772	0.811	0.294	0.335	0.373	0.204	0.362
HCC-44	1.04	0.976	0.922	0.713	0.166	0.164	0.138	0.21	0.208	0.83	0.794	0.875	0.758	0.733	–	1.09	1.03	1.04	0.734
HCC-827	0.173	0.184	0.173	0.155	0.396	0.377	0.424	0.387	0.394	0.884	0.937	0.985	0.859	0.892	0.475	0.444	0.872	0.426	0.451
HOP-62	0.935	0.88	0.923	0.843	0.57	0.854	0.565	0.679	0.359	0.893	0.873	0.992	0.953	0.88	0.919	0.951	0.981	0.88	0.632
LC-2-ad	0.883	0.943	0.98	0.678	0.518	0.657	0.608	0.576	0.551	0.438	0.423	0.475	0.499	0.486	0.957	0.941	1.18	1.01	0.907
LCLC-97TM1	0.658	1.09	0.87	1.15	0.43	0.443	0.463	0.498	0.46	0.394	0.299	0.41	0.263	0.252	0.732	0.63	0.821	0.602	0.834
LK-2	0.908	1.2	0.941	0.913	–	0.466	0.376	0.661	0.245	0.252	0.212	0.235	0.213	0.269	0.17	0.2	0.187	0.214	0.207
LOU-NH91	–	0.872	0.778	0.78	0.716	0.726	0.655	0.616	0.63	0.796	0.75	0.746	0.735	0.655	0.332	0.358	0.323	0.317	0.31
LU99A	0.833	0.853	0.846	0.541	0.765	0.838	0.769	0.891	0.896	0.493	0.577	0.516	0.517	0.563	0.251	0.31	0.208	0.249	0.316
LXF-289	0.847	0.907	0.897	0.731	0.491	0.538	0.553	0.507	0.485	0.813	0.832	0.808	0.774	0.82	0.667	0.686	0.77	0.47	0.513
